Test results: US8691799B2, “Materials and methods for treatment of cancer and identification of anti-cancer compounds” (priority 2001, dated 2014)

Tests used:
A549 tumors = experiment: Antitumor activity, A549 xenograft in nude mice; assay type: in vivo
From the text: Antitumor Activity in the Nude Mouse Tumor Xenograft Model. Nude mice and C57 BL-6 black mice (National Cancer Institute, Bethesda, Md.) were maintained in accordance with the Institutional Animal Care and Use Committee (IACUC) procedures and guidelines. v-Src- and oncogenic H-Ras-transformed NIH 3T3, A549, MDA-MB-468 and Calu-1 cells were harvested, resuspended in PBS and injected s.c. into the right and left flank (10×10^6 cells per flank) of 8 week old female nude mice as reported previously (Sun, J. et al. Cancer Res., 1999, 59:4919-4926). Similarly, murine B16-F10 Melanoma cells were injected s.c. into the right and left flank (10^6 cells per flank) of C57 black mice. When tumors reached about 150 mm^3, animals were randomized (five animals per group; two tumors per animal) and dosed i.p. with 0.2 ml once daily. […] The tumor volumes were determined by measuring the length (l) and the width (w) and calculating the volume (V=1w^2/2) as described previously (Sun, J. et al. Cancer Res., 1999, 59:4919-4926). Statistical significance between control and treated animals were evaluated by using Student's t-test. For the mouse survival experiments, C57 BL-6 black mice were implanted s.c. with B16-F10 cells (10^5 to 10^6 cells per flank). […] Percent surviving mice was determined by monitoring the death of mice until all mice died. […]

JAK1 = experiment: JAK kinase autophosphorylation assay on immunoprecipitates (JAK1); assay type: biochemical; conditions: immunoprecipitates from MDA-MB-468 or v-Src/NIH 3T3 cells; AG490 100 μM, PD180970 2 μM
Protocol: JAK Kinase Assays. A549, MDA-MB-468, and v-Src transformed NIH 3T3 cells were harvested, washed three times in PBS-V (10 mM sodium phosphate, pH 7.4, 137 mM NaCl, 1 mM sodium orthovanadate) then lysed for 30 min on ice in JAK kinase lysis buffer (25 mM Hepes, pH 7.4, 0.1% Triton-X-100, 0.5 mM DTT, 1 mM sodium orthovanadate, 1 mM PMSF, 10 μg/ml aprotinin, 10 μg/ml leupeptin). Samples were spun at high speed to clear, and 800-1000 μg of protein was immunoprecipitated per treatment condition with 50 ng of either JAK1 or JAK2 antibody (Santa Cruz Biotechnology) rocking overnight at 4° C. 25 μl of protein A/G PLUS agarose then was added and rocking continued for 1 hr at 4° C. Samples were spun to collect agarose pellet, and pellet washed twice in wash buffer (50 mM Hepes, pH 7.4, 0.1% Triton-X-100, 0.5 mM DTT, 150 mM NaCl) and once in phosphorylation buffer (50 mM Hepes, pH 7.4, 0.1% Triton-X-100, 0.5 mM DTI, 6.25 mM manganese chloride, 100 mM NaCl). Kinase reactions were performed at 30° C. for 15 min in a final volume of 100 μl of phosphorylation buffer. Samples were pretreated with DMSO control, JSI-124, and control compounds (AG490, 100 μM, and […], 2 μM) before addition of 20 μCi/sample y-[^32P]ATP. Reaction was halted using stop buffer (wash buffer plus 10 mM EDTA), samples spun to collect pellet, then pellet washed once with stop buffer and twice with wash buffer. Samples were then placed in 2×SDS-PAGE sample buffer, boiled at 100° C., and run on 8% SDS-PAGE gels to separate proteins. Autophosphorylation results were visualized by autoradiography.

phosphotyrosine JAK2 = experiment: Western blotting for phosphotyrosine JAK2; assay type: cell-based, human
Protocol: Western Blotting. Treated cell samples were lysed in 30 mM Hepes, pH 7.5, 10 mM NaCl, 5 mM MgCl2, 25 mM NaF, 1 mM EGTA, 1% Triton-X-100, 10% glycerol, 2 mM sodium orthovanadate, 10 μg/ml aprotinin, 10 μg/ml soybean trypsin inhibitor, 25 μg/ml leupeptin, 2 mM PMSF, and 6.4 mg/ml p-nitrophenylphosphate. Phospho-STAT3, phospho-AKT, phospho-MEK, and phospho-p42/p44 MAPK antibodies were obtained from Cell Signaling Technologies, Cambridge, Mass. Antibodies to STAT3, JAK2, and phospho-INK were purchased from Santa Cruz Biotechnology, Santa Cruz, Calif. Phospho-JAK2 antibody came from Upstate Biotechnology, Lake Placid, N.Y. Membranes were blocked in either 5% milk in PBS, pH 7.4, containing 0.1% Tween-20 (PBS-T) or 1% BSA in TBS, pH 7.5, containing 0.1% Tween-20 (TBS-T). Phospho-specific antibodies (excepting P-MAPK and P-JNK) were incubated in 1% BSA in TBS-T while all other antibodies were diluted in 5% milk in PBS-T for either 2 hr at room temperature or overnight at 4° C. HRP-conjugated secondary antibodies (Jackson ImmunoResearch) were diluted in 5% milk in either PBS-T or TBS-T at 1:1000 dilution for one hour at room temperature. Western blots were visualized using enhanced chemiluminescence as described previously (Blaskovich, M. A. et al. Nat. Biotechnol., 2000, 18:1065-1070).

With `CC(C)(O)/C=C/C(=O)[C@](C)(O)[C@H]1[C@H](O)C[C@@]2(C)[C@@H]3CC=C4[C@@H](C=C(O)C(=O)C4(C)C)[C@]3(C)C(=O)C[C@]12C` [JSI-124, cucurbitacin I] the “inhibition of A549 tumor growth, reduced dose” value (A549 tumors; 0.5 mg/kg/day for 23 days, nude mice (data not shown)) was 52%, the “inhibition of A549 tumor growth” value (A549 tumors; 1 mg/kg/day i.p., nude mice) was 76% and the “JAK1 kinase activity (autophosphorylation) in vitro” value (JAK1) was “not affected”. For the same compound, the “levels of tyrosine phosphorylated JAK2” value (phosphotyrosine JAK2; A549 and MDA-MB-468 cells, various concentrations, 4 hr) was “effective at suppressing the levels of tyrosine phosphorylated JAK2”, the “inhibition of phospho JAK2 levels (in words)” value (phosphotyrosine JAK2; A-549 cells, 0-10 μM) was “inhibits both phospho STAT3 and phospho JAK2 levels” and the IC50 (phosphotyrosine JAK2; A-549 cells, Western blotting, read-out: IC50 for phospho-JAK2) was 0.2 µM.
